# From patent US6258837A, “Neuropeptide Y receptor antagonist” (Banyu Pharmaceutical Co., Ltd., priority 1997, dated 2001)
# How the values were obtained:
# human NPY Y5 receptor = molecular target: T1, human NPY Y5 receptor (Homo sapiens, UniProt Q15761); test: test of inhibition of NPY binding ([125I]peptide YY binding to membranes of cells expressing the NPY Y5 receptor)
# T1 construct: expressed in transfected cells; host or cells: COS-7, CHO and LM(tk-)
# T1 sequence (Q15761 1-445): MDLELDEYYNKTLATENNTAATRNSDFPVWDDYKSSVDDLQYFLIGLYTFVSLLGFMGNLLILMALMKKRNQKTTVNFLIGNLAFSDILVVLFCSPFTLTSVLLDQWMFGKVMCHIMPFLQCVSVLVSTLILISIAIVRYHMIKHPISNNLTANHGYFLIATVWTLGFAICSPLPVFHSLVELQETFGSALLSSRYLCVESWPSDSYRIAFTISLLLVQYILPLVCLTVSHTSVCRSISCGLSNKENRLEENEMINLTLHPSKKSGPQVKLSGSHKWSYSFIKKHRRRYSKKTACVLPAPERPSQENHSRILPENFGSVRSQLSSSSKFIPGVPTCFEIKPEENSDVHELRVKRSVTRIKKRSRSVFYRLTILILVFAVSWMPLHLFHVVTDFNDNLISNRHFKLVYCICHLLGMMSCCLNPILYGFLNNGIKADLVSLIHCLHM
# Text: cDNA Sequence encoding a human NPY Y5 receptor [International Publication WO 96/16542] was cloned into expression vectors pcDNA3, pRc/RSV (manufactured by Invitrogen) and pCI-neo (manufactured by Promega). Using the cationic lipid method [see Proceedings of the National Academy of Science of the United States of America, vol.84, p.7413 (1987)], host cells COS-7, CHO and LM(tk-) (American Type Culture Collection) were transfected with the thus prepared expression vectors to obtain cells in which the NPY Y5 receptor had been expressed.
# After washing with 50 mM Tris buffer, pH 7.4, containing 0.3% BSA, radioactivity on the glass filter was measured using a gamma counter. Non-specific binding was measured in the presence of 1 μM of peptide YY to calculate a concentration of each compound to be tested which concentration is needed to inhibit 50% of the specific binding of the peptide YY (IC50 value) [see Endocrinology, vol.131, p.2090 (1992)].
# SD male rats [1] = test: test of inhibition of feeding behavior induced by bPP; assay type: in vivo, rat; conditions: oral, one hour before bPP (5 μg/head/10 μl, lateral cerebral ventricle); food intake during two hours
# Procedure: Under pentobarbital anesthesia (single intraperitoneal injection of 50 mg/kg), a chronic guide cannula (outer diameter 0.8 mm; inner diameter 0.5 mm; length 10 mm) was stereotactically inserted in a right lateral cerebral ventricle of each of SD male rats (7 to 8-week-old; 200 to 300 g) and fixed using a dental resin. A tip of the guide cannula was positioned 0.9 mm behind a bregma, 1.2 mm at the right of a median line and in the depth of 1.5 mm from the brain surface. An inner needle was inserted such that its tip projected from the tip of the guide cannula by about 2 mm and arrived to a lateral cerebral ventricle. After a recovery period of about one week, a bovine pancreatic polypeptide (bpp, 5 μg/head/10 μl) was administered to the lateral cerebral ventricle. A compound to be tested was orally administered one hour before the administration of bpp and food intake during two hours from the administration was measured. In this connection, the compound to be tested was administered after dissolving in a 0.5% aqueous methyl cellulose solution and bpp was administered after dissolving in 10 mM phosphate buffered saline.
# SD male rats [2] = test: acute toxicity test; assay type: in vivo, rat; conditions: 500 mg/kg oral
# Procedure: A compound to be tested in an amount of 500 mg/kg was orally administered to each of SD male rats (10-week-old; 300 to 400 g). After immediately, 5 minutes, 30 minutes, 1 hour, 2 hours, 4 hours, 6 hours, 8 hours and 24 hours from the administration, the condition of each rat was observed. And, after 24 hours from the administration, the rat was killed by dehematizing via carotid artery and then laparotomized in order to observe the presence or absence of any change in abdominal organs by the naked eye. In this connection, the compound to be tested was administered in a dose of 5 ml/kg after suspending in a 0.5% aqueous methyl cellulose solution.
smiles,measurement,setting,value
"CC1(C)CC(=O)C(C2C3=C(CC(C)(C)CC3=O)Oc3ccccc32)C(=O)C1 (racemic) [compound [I], 3,3-dimethyl-9-(4,4-dimethyl-2,6-dioxo-cyclohexyl)-1-oxo-1,2,3,4-tetrahydroxanthene]",IC50,"human NPY Y5 receptor; [125I] peptide YY, 25° C., 2 hours, pH 7.4, membrane preparations, read-out: concentration needed to inhibit 50% of the specific binding of the peptide YY (IC50 value)",27 nM
same,inhibition of the binding of the peptide YY to the NPY Y5 receptor (in words),human NPY Y5 receptor; peptide YY (a homologue of NPY),strongly inhibited the binding
same,inhibition of the increase in food intake induced by bPP,SD male rats [1],significantly inhibits the increase in food intake
same,change in abdominal organs observed by the naked eye (acute toxicity),SD male rats [2]; 24 hours after administration,abdominal organs were observed to be unchanged
same,general health of each rat (acute toxicity),SD male rats [2]; until 24 hours after administration,no abnormality in general health of each rat was observed
